Test results from US8802678B2, “Carbonylated (aza) cyclohexanes as dopamine D3 receptor ligands” (Bioprojet, priority 2006, dated 2014).

Structure (SMILES)	melting point
Cc1ccc(F)c(N2CCN(CC[C@H]3CC[C@H](NC(=O)C4=CCCC4)CC3)CC2)c1 [Example 534, Cyclopent-1-enecarboxylic acid (4-{2-[4-(2-fluoro-5-methylphenyl)piperazin-1-yl]ethyl}cyclohexyl) amide]	174 °C
CC(C)OCC(=O)N[C@H]1CC[C@H](CCN2CCN(c3cccc(F)c3F)CC2)CC1.Cl	215 °C
CC(=O)CN1CCC(CCN2CCN(c3ccc(F)c(C(F)(F)F)c3)CC2)CC1.Cl.Cl	266 °C
CC(=O)NCC(=O)N[C@H]1CC[C@H](CCN2CCN(c3ccccc3F)CC2)CC1 [Example 134, 2-Acetylamino-N-(4-{2-[4-(2-fluorophenyl)piperazin-1-yl]ethyl}cyclohexyl)acetamide]	217 °C
CC(C)(C)OCC(=O)N[C@H]1CC[C@H](CCN2CCN(c3cccc(C(F)(F)F)c3)CC2)CC1 [Example 135, 2-tert-Butoxy-N-(4-{2-[4-(3-trifluoromethylphenyl)piperazin-1-yl]ethyl}cyclohexyl)acetamide trans/cis 95/5]	81 °C
CSc1ccccc1N1CCN(CC[C@H]2CC[C@H](NC(=O)CC#N)CC2)CC1 [Example 194, 2-Cyano-N-(4-{2-[4-(2-methylsulfanylphenyl)piperazin-1-yl]ethyl}cyclohexyl)acetamide]	146 °C
N#CCC(=O)N[C@H]1CC[C@H](CCN2CCN(c3ccc(Cl)cc3F)CC2)CC1 [Example 359, N-(4-{2-[4-(4-Chloro-2-fluorophenyl)piperazin-1-yl]ethyl}cyclohexyl)-2-cyanoacetamide]	218 °C
N#CCC(=O)N[C@H]1CC[C@H](CCN2CCN(c3ccccc3Cl)CC2)CC1 [Example 131, N-(4-{2-[4-(2-Chlorophenyl)-piperazin-1-yl]ethyl}cyclohexyl)-2-cyanoacetamide]	194 °C
Cl.N#CCC(=O)N1CCC(CCN2CCN(c3cccc4c3CCC4)CC2)CC1	210 °C
CC(=O)CN1CCC(CCN2CCN(c3ccc(C(F)(F)F)cc3F)CC2)CC1.Cl.Cl	278 to 279 °C
CC(=O)c1cccc(N2CCN(CC[C@H]3CC[C@H](NC(=O)CCCC#N)CC3)CC2)c1 [Example 375]	181 °C
CC(=O)CN1CCC(CCN2CCN(c3cccc(CC(C)C)c3)CC2)CC1.Cl.Cl	240 °C
N#CCC(=O)N[C@H]1CC[C@H](CCN2CCN(c3cc(C(F)(F)F)ccc3F)CC2)CC1 [Example 174, 2-Cyano-N-(4-{2-[4-(2-fluoro-5-trifluoromethylphenyl)piperazin-1-yl]ethyl}cyclohexyl)acetamide]	197 °C
Cc1cccc(C)c1N1CCN(CC[C@H]2CC[C@H](NC(=O)CC#N)CC2)CC1 [Example 267, 2-Cyano-N-(4-{2-[4-(2,6-dimethylphenyl)piperazin-1-yl]ethyl}cyclohexyl)acetamide]	143 °C
CCOCC(=O)N[C@H]1CC[C@H](CCN2CCN(c3ccc(C)c(Cl)c3)CC2)CC1.Cl	162 °C
CC(=O)CN1CCC(CCN2CCN(c3cccc(F)c3F)CC2)CC1.Cl.Cl	270 °C
CC(=O)CN1CCC(CCN2CCN(c3ccc4c(c3)OCO4)CC2)CC1 [Example 584, 1-{4-[2-(4-Benzo[1,3]dioxol-5-ylpiperazin-1-yl)ethyl]piperidin-1-yl}propan-2-one]	113 °C
CC(=O)CN1CCC(CCN2CCN(c3cccc(C)c3C)CC2)CC1.Cl.Cl	290 °C
COCC(=O)N[C@H]1CC[C@H](CCN2CCN(c3cc(F)cc(Cl)c3)CC2)CC1 [Example 742, N-(4-{2-[4-(3-Chloro-5-fluorophenyl)piperazin-1-yl]ethyl}cyclohexyl)-2-methoxyacetamide]	132 °C
N#CCCCC(=O)N[C@H]1CC[C@H](CCN2CCN(c3ccc(C(F)(F)F)cc3)CC2)CC1 [Example 544, 4-Cyano-N-(4-{2-[4-(4-trifluoromethylphenyl)piperazin-1-yl]ethyl}cyclohexyl)butanamide]	207 °C
